Assays:
[1] = in vivo
Protocol: They received standard oral carbimazole (Neomercazole, AFT Pharmaceuticals Ltd) tablets 5 mg administered twice daily for a week, followed by a test formulation of transdermal carbimazole (Test Formulation 1, Table 1, Example 2, below) 10 mg administered twice daily for a week, followed by Hoffman's (2002) transdermal formulation of carbimazole in poloxamer lecithin organogel (PLO), 10 mg administered twice daily for a week. At least a fortnight was allowed between treatments.

[2] = system: total thyroxine (tT4); experiment: Total thyroxine (tT4) assays before and after each week's treatment (Example 1); type: in vivo; details: cats; twice daily for a week
Text: At least a fortnight was allowed between treatments.

[3] = Hoffman et al, 2002; cited from earlier work

| SMILES | plasma methimazole levels relative to the published therapeutic range [1] | tT4 concentrations over the seven days of the trial period [2] | published plasma levels with methimazole [3] [µg/mL] |
| --- | --- | --- | --- |
| CCOC(=O)n1ccn(C)c1=S [carbimazole] | in the published therapeutic range | approximately halved | – |
| Cn1cc[nH]c1=S [methimazole] | – | – | 0.51 ± 0.15 |

— patent US8748467B2, “Topical formulation” (Bayer Intellectual Property GmbH, priority 2007, dated 2014)
